The source of these data is patent publication US9867833B2, “Serine/threonine kinase inhibitors” (GENENTECH, INC., priority 2013, dated 2018).

Structures are written as SMILES.

Sequence of human ERK-2 (Mitogen Activated Kinase 1) (P28482 8-360): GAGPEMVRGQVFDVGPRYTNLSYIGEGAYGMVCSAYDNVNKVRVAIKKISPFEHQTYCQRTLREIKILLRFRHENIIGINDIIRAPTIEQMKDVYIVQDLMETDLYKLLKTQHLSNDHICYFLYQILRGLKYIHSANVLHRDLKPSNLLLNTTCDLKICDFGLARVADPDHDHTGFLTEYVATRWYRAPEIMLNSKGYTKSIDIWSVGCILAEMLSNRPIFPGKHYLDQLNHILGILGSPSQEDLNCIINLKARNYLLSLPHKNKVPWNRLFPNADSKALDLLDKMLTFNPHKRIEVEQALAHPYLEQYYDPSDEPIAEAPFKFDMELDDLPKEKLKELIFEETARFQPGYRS

For the test, the target named is human ERK-2 (Mitogen Activated Kinase 1) (Homo sapiens (Human), UniProt P28482). Put plainly: ERK-2 Enzymatic Assay. Type of test: biochemical. The following applies: human ERK-2 enzyme 5 nM, 25 μM ATP, S/T17 peptide substrate; isomer = configuration of CR2R3. As for the experimental part:
Compounds were tested in an enzymatic assay using human ERK-2 (Mitogen Activated Kinase 1), recombinantly expressed as an n-terminal 6-His fusion protein in E. coli and corresponding to aa 8-360. […] Test compounds were diluted in DMSO in 3-fold serial dilutions at 100× final concentrations. […] The data collected from each well was fit to a straight line, and the resulting rates were used to calculate percent of control. Percent of control was plotted against compound concentration, and IC50 values were determined using a four-parameter fit.
On to `Cn1nccc1Nc1nccc(-c2cc3n4c(nnc4c2)[C@H](Oc2cncc(Cl)c2)CCO3)n1` [(R) I-77, 4-(9-((5-chloropyridin-3-yl)oxy)-8,9-dihydro-7H-6-oxa-1,2,2a^1-triazabenzo[cd]azulen-4-yl)-N-(1-methyl-1H-pyrazol-5-yl)pyrimidin-2-amine], for which the midpoint of inhibition, the IC50, lay at 0.311 nM. Under `Cn1nccc1Nc1cc(-c2cc3n4c(nnc4c2)[C@H](Oc2cncc(Cl)c2)CCO3)ccn1` [(R) I-78, 4-(9-((5-chloropyridin-3-yl)oxy)-8,9-dihydro-7H-6-oxa-1,2,2a^1-triazabenzo[cd]azulen-4-yl)-N-(1-methyl-1H-pyrazol-5-yl)pyridin-2-amine] stands 4.61 nM; under `Cn1nccc1Nc1nccc(-c2cc3n4c(nnc4c2)[C@@H](Cc2ccc(F)c(Cl)c2)CO3)n1` [(R) I-82, 4-(3-(3-chloro-4-fluorobenzyl)-3,4-dihydro-5-oxa-1,2,2a^1-triazaacenaphthylen-7-yl)-N-(1-methyl-1H-pyrazol-5-yl)pyrimidin-2-amine], 0.6 nM; under `CN1C(=O)C[C@@H](Cc2ccc(Cl)cn2)c2nnc3cc(-c4ccnc(Nc5ccnn5C)n4)cc1n23` [(R) I-84, 9-((5-chloropyridin-2-yl)methyl)-6-methyl-4-(2-((1-methyl-1H-pyrazol-5-yl)amino)pyrimidin-4-yl)-8,9-dihydro-1,2,2a^1,6-tetraazabenzo[cd]azulen-7(6H)-one], 0.102 nM.

Take `COc1ccc(C[C@@H]2CC(=O)N(C)c3cc(-c4ccnc(Nc5ccnn5C)n4)cc4nnc2n34)c(F)c1` [(R) I-85, 9-(2-fluoro-4-methoxybenzyl)-6-methyl-4-(2-((1-methyl-1H-pyrazol-5-yl)amino)pyrimidin-4-yl)-8,9-dihydro-1,2,2a^1,6-tetraazabenzo[cd]azulen-7(6H)-one]: the IC50 is less than 0.02 nM. Turning to `CC(C)[C@H]1CC(=O)N(C)c2cc(-c3ccnc(Nc4ccnn4C)c3)cc3nnc1n23` [(R) I-87, 9-isopropyl-6-methyl-4-(2-((1-methyl-1H-pyrazol-5-yl)amino)pyridin-4-yl)-8,9-dihydro-1,2,2a^1,6-tetraazabenzo[cd]azulen-7(6H)-one], the IC50 was determined as 6.94 nM. Take `Cn1nccc1Nc1nccc(-c2cc3n4c(nnc4c2)[C@@H](Cc2cccc(Cl)c2)CO3)n1` [(R) I-88, 4-(3-(3-chlorobenzyl)-3,4-dihydro-5-oxa-1,2,2a^1-triazaacenaphthylen-7-yl)-N-(1-methyl-1H-pyrazol-5-yl)pyrimidin-2-amine]: the IC50 is less than 0.02 nM. The compound `Cn1nccc1Nc1cc(-c2cc3n4c(nnc4c2)[C@@H](Cn2cc(C(F)(F)F)cn2)CCO3)ccn1` [(R) I-89, N-(1-methyl-1H-pyrazol-5-yl)-4-(9-((4-(trifluoromethyl)-1H-pyrazol-1-yl)methyl)-8,9-dihydro-7H-6-oxa-1,2,2a^1-triazabenzo[cd]azulen-4-yl)pyridin-2-amine] came in with an IC50 of less than 0.02 nM. Regarding `Cn1nccc1Nc1nccc(-c2cc3n4c(nnc4c2)[C@H](Oc2ccccc2)CCO3)n1` [(R) I-90, N-(1-methyl-1H-pyrazol-5-yl)-4-(9-phenoxy-8,9-dihydro-7H-6-oxa-1,2,2a^1-triazabenzo[cd]azulen-4-yl)pyrimidin-2-amine], the IC50 turned out to be 0.942 nM. Turning to `Cn1nccc1Nc1nccc(-c2cc3n4c(nnc4c2)[C@H](Oc2cncc(F)c2)CCO3)n1` [(R) I-91, 4-(9-((5-fluoropyridin-3-yl)oxy)-8,9-dihydro-7H-6-oxa-1,2,2a^1-triazabenzo[cd]azulen-4-yl)-N-(1-methyl-1H-pyrazol-5-yl)pyrimidin-2-amine], the IC50 was 25.8 nM. As for `Cc1cc(C[C@H]2CCOc3cc(-c4ccnc(Nc5ccnn5C)n4)cc4nnc2n34)on1` [(R) I-93, N-(1-methyl-1H-pyrazol-5-yl)-4-(9-((3-methylisoxazol-5-yl)methyl)-8,9-dihydro-7H-6-oxa-1,2,2a^1-triazabenzo[cd]azulen-4-yl)pyrimidin-2-amine], the IC50 was less than 0.02 nM.

As for `COc1cccc(C[C@H]2COc3cc(-c4ccnc(Nc5ccnn5C)c4)cc4nnc2n34)c1` [(R) I-97, 4-(3-(3-methoxybenzyl)-3,4-dihydro-5-oxa-1,2,2a^1-triazaacenaphthylen-7-yl)-N-(1-methyl-1H-pyrazol-5-yl)pyridin-2-amine], the IC50 is less than 0.02 nM.

In turn, `Cn1nccc1Nc1nccc(-c2cc3n4c(nnc4c2)[C@H](CCC(F)(F)F)CCO3)n1` [(R) I-102, N-(1-methyl-1H-pyrazol-5-yl)-4-(9-(3,3,3-trifluoropropyl)-8,9-dihydro-7H-6-oxa-1,2,2a^1-triazabenzo[cd]azulen-4-yl)pyrimidin-2-amine] displayed an IC50 of 1.7 nM. `CCC[C@@H]1CCOc2cc(-c3ccnc(Nc4ccnn4C)c3)cc3nnc1n23` [(R) I-103, N-(1-methyl-1H-pyrazol-5-yl)-4-(9-propyl-8,9-dihydro-7H-6-oxa-1,2,2a^1-triazabenzo[cd]azulen-4-yl)pyridin-2-amine] returned an IC50 of 2.77 nM. In turn, `CCC[C@@H]1CCOc2cc(-c3ccnc(Nc4ccnn4C)n3)cc3nnc1n23` [(R) I-104, N-(1-methyl-1H-pyrazol-5-yl)-4-(9-propyl-8,9-dihydro-7H-6-oxa-1,2,2a^1-triazabenzo[cd]azulen-4-yl)pyrimidin-2-amine] registered an IC50 of 2.3 nM.

The compound `CC(C)C[C@@H]1CCOc2cc(-c3ccnc(Nc4ccnn4C)n3)cc3nnc1n23` [(R) I-107, 4-(9-isobutyl-8,9-dihydro-7H-6-oxa-1,2,2a^1-triazabenzo[cd]azulen-4-yl)-N-(1-methyl-1H-pyrazol-5-yl)pyrimidin-2-amine] yielded an IC50 of 1.85 nM.

Consider `Cn1nccc1Nc1nccc(-c2cc3n4c(nnc4c2)C(Oc2ccc(F)cc2)CCO3)n1` [(R) I-108, 4-(9-(4-fluorophenoxy)-8,9-dihydro-7H-6-oxa-1,2,2a^1-triazabenzo[cd]azulen-4-yl)-N-(1-methyl-1H-pyrazol-5-yl)pyrimidin-2-amine], for which half-maximal inhibition (IC50) required 2.95 nM. Take `Cc1csc(C[C@H]2CCOc3cc(-c4ccnc(Nc5ccnn5C)n4)cc4nnc2n34)n1` [(R) I-109, N-(1-methyl-1H-pyrazol-5-yl)-4-(9-((4-methylthiazol-2-yl)methyl)-8,9-dihydro-7H-6-oxa-1,2,2a^1-triazabenzo[cd]azulen-4-yl)pyrimidin-2-amine]: the IC50 was less than 0.02 nM. `Clc1cnn(C[C@H]2CCOc3cc(-c4ccnc(NC5CCOCC5)n4)cc4nnc2n34)c1` [(R) I-110, 4-(9-((4-chloro-1H-pyrazol-1-yl)methyl)-8,9-dihydro-7H-6-oxa-1,2,2a^1-triazabenzo[cd]azulen-4-yl)-N-(tetrahydro-2H-pyran-4-yl)pyrimidin-2-amine] had an IC50 of less than 0.02 nM. `Cn1nccc1Nc1nccc(-c2cc3n4c(nnc4c2)[C@H](Oc2ccc(F)c(F)c2)CCO3)n1` [(R) I-111, 4-(9-(3,4-difluorophenoxy)-8,9-dihydro-7H-6-oxa-1,2,2a^1-triazabenzo[cd]azulen-4-yl)-N-(1-methyl-1H-pyrazol-5-yl)pyrimidin-2-amine] returned an IC50 of 2.6 nM. In turn, `Cn1nccc1Nc1nccc(-c2cc3n4c(nnc4c2)[C@@H](c2ccccc2)CN3)n1` [(S) I-1, N-(1-methyl-1H-pyrazol-5-yl)-4-(3-phenyl-4,5-dihydro-3H-1,2,2a^1,5-tetraazaacenaphthylen-7-yl)pyrimidin-2-amine] showed an IC50 of 1.1 nM.

In turn, `Cn1nccc1Nc1nccc(-c2cc3n4c(nnc4c2)[C@@H](Cc2ccccc2)CN3)n1` [(S) I-2, (S)-4-(3-benzyl-4,5-dihydro-3H-1,2,2a^1,5-tetraazaacenaphthylen-7-yl)-N-(1-methyl-1H-pyrazol-5-yl)pyrimidin-2-amine] had an IC50 of 0.02 nM. As to `Cn1nccc1Nc1nccc(-c2cc3n4c(nnc4c2)[C@@H](Cc2ccc(Cl)cc2)CN3)n1` [(S) I-5, 4-(3-(4-chlorobenzyl)-4,5-dihydro-3H-1,2,2a^1,5-tetraazaacenaphthylen-7-yl)-N-(1-methyl-1H-pyrazol-5-yl)pyrimidin-2-amine], the IC50 is less than 0.02 nM. The figure for `Cn1nccc1Nc1cc(-c2cc3n4c(nnc4c2)[C@@H](Cc2ccccc2)CN3)ccn1` [(S) I-7, 4-(3-benzyl-4,5-dihydro-3H-1,2,2a^1,5-tetraazaacenaphthylen-7-yl)-N-(1-methyl-1H-pyrazol-5-yl)pyridin-2-amine] is less than 0.02 nM; for `Cn1nccc1Nc1cc(-c2cc3n4c(ncc4c2)[C@@H](Cc2ccc(Cl)cc2)CN3)ccn1` [(S) I-8, 4-(3-(4-chlorobenzyl)-4,5-dihydro-3H-1,2,2a^1,5-tetraazaacenaphthylen-7-yl)-N-(1-methyl-1H-pyrazol-5-yl)pyridin-2-amine] it is less than 0.02 nM; for `CN1C[C@H](Cc2ccccc2)c2nnc3cc(-c4ccnc(Nc5ccnn5C)n4)cc1n23` [(S) I-9, 4-(3-benzyl-5-methyl-4,5-dihydro-3H-1,2,2a^1,5-tetraazaacenaphthylen-7-yl)-N-(1-methyl-1H-pyrazol-5-yl)pyrimidin-2-amine] it is less than 0.02 nM.

As for `CC(C)C[C@H]1CNc2cc(-c3ccnc(Nc4ccnn4C)n3)cc3nnc1n23` [(S) I-10, 4-(3-isobutyl-4,5-dihydro-3H-1,2,2a^1,5-tetraazaacenaphthylen-7-yl)-N-(1-methyl-1H-pyrazol-5-yl)pyrimidin-2-amine], the IC50 was less than 0.02 nM.

For `COc1ccc(C[C@H]2CNc3cc(-c4ccnc(Nc5ccnn5C)n4)cc4nnc2n34)cc1` [(S) I-11, 4-(3-(4-methoxybenzyl)-4,5-dihydro-3H-1,2,2a^1,5-tetraazaacenaphthylen-7-yl)-N-(1-methyl-1H-pyrazol-5-yl)pyrimidin-2-amine], the IC50 was less than 0.02 nM. The figure for `COc1ccc(C[C@H]2CNc3cc(-c4ccnc(Nc5ccnn5C)n4)cc4nnc2n34)cc1F` [(S) I-12, 4-(3-(3-fluoro-4-methoxybenzyl)-4,5-dihydro-3H-1,2,2a^1,5-tetraazaacenaphthylen-7-yl)-N-(1-methyl-1H-pyrazol-5-yl)pyrimidin-2-amine] is less than 0.02 nM.
